From publication PMC5854716, “Synthesis, molecular docking, ctDNA interaction, DFT calculation and evaluation of antiproliferative and anti-Toxoplasma gondii activities of 2,4-diaminotriazine-thiazole derivatives” (Medicinal Chemistry Research, 2018)

These compounds were tested on human breast carcinoma MCF-7 cells (assay: In vitro antiproliferative assay (SRB), MCF-7). Details: 72 h exposure, mean ± SD.
Type: cell-based
Procedure: Biphenotypic B myelomonocytic leukemia MV4-11, human lung carcinoma A549, human breast carcinoma MCF-7, and normal mouse fibroblast BALB/3T3 cells were obtained from American Type Culture Collection (Rockville, Maryland, USA). All the cell lines are being maintained at the Institute of Immunology and Experimental Therapy, Wroclaw, Poland. MV4-11 cells were cultured in RPMI 1640 medium (Gibco, UK) with 2 mM L-glutamine adjusted to contain 1.0 mM sodium pyruvate, and 10% fetal bovine serum (FBS) (all from Sigma-Aldrich, Germany). A549 cells were cultured in RPMI 1640+ Opti-MEM (1:1) (both from Gibco, UK), MCF-7 cells in Eagle medium (IIET, Wroclaw, Poland), BALB/3T3 in Dulbecco medium (IIET, Poland) supplemented with 2 mM L-glutamine and 1.0 mM sodium pyruvate, 10% fetal bovine serum (all from Sigma-Aldrich, Germany). The MCF-7 cell culture was supplemented with 0.8 mg/l of insulin (Sigma-Aldrich, Germany). All culture media were supplemented with 100 units/ml penicillin, and 100 µg/ml streptomycin (both from Polfa Tarchomin S.A., Poland). All cell lines were grown at 37 °C with 5% CO2 humidified atmosphere (Łączkowski et al. [2014], [2016a]). Prior to usage, the compounds were dissolved in DMSO and culture medium (1: 9) to the concentration of 1 mg/ml, and subsequently diluted in culture medium to reach the required concentrations (0.1, 1, 10, and 100 µg/ml) (Łączkowski et al. [2014], [2016a]). Twenty-four hours prior to the addition of the tested compounds, the cells counted using Burker hemocytometer were plated in 96-well plates (Sarstedt, Germany) at a density of 1 × 10^4 cells per well. The assay was performed after 72 h of exposure to varying concentrations of the tested agents. The in vitro cytotoxic effect of all agents was examined using the SRB assay for adherent cells (A549, MCF-7, and BALB/3T3) or MTT assay for leukemia cells (MV4-11) as described previously. […] Each compound in each concentration was tested in triplicate in a single experiment, which was repeated 3–7 times (Rubinstein et al. [1990]; Bramson et al. [1995]). Cells were attached to the bottom of plastic wells by fixing them with cold 50% TCA (trichloroacetic acid, POCH, Gliwice, Poland) on top of the culture medium in each well. The plates were incubated at 4 °C for 1 h and then washed five times with tap water. The cellular material fixed with TCA was stained with 0.1% sulforhodamine B (SRB, Sigma-Aldrich, Germany) and dissolved in 1% acetic acid (POCH, Gliwice, Poland) for 30 min. Unbound dye was removed by rinsing (4×) in 1% acetic acid. The protein-bound dye was extracted with 10 mM unbuffered Tris base (Sigma-Aldrich, Germany) for determination of the optical density (λ = 540 nm) in a computer-interfaced, 96-well Synergy H4 (BioTek Instruments USA) photometer microtiter plate reader (Sidoryk et al. [2012]).

| IC50 MCF-7 | Structure (SMILES) |
| --- | --- |
| ─ | C/C(=N\Nc1nc(-c2cc3ccccc3oc2=O)cs1)c1ccc(Nc2nc(N)nc(N)n2)cc1 [Compound 4f, (E)-3-(2-(2-(1-(4-(4,6-diamino-1,3,5-triazin-2-yloamino)phenyl)ethylidene)hydrazinyl)thiazol-4-yl)-2H-chromen-2-on] |
| 5.95 ± 2.165 µg/mL | C/C(=N\Nc1nc(-c2ccc(NS(C)(=O)=O)cc2)cs1)c1ccc(Nc2nc(N)nc(N)n2)cc1 [Compound 4j, (E)-N-(4-(2-(2-(1-(4-(4,6-diamino-1,3,5-triazin-2-yloamino)phenyl)ethylidene)hydrazinyl)thiazol-4-yl)phenyl)-methanesulfonamide] |
| 6.67 ± 2.958 µg/mL | CC(=O)Nc1ccc(-c2csc(N/N=C(\C)c3ccc(Nc4nc(N)nc(N)n4)cc3)n2)cc1 [Compound 4g, (E)-N^2-(4-(2-(2-(1-(4-(4,6-diamino-1,3,5-triazin-2-yloamino)phenyl)ethylidene)hydraziny)thiazol-4-yl)phenyl)-acetamide] |

Same assay, conditions: Homo sapiens, MCF7, 72 h exposure, mean ± SD

| IC50 | Structure (SMILES) |
| --- | --- |
| 8.72 ± 5.28 µg/mL | C/C(=N\Nc1nc(-c2ccc([N+](=O)[O-])cc2)cs1)c1ccc(Nc2nc(N)nc(N)n2)cc1 [Compound 4h, (E)-N^2-(4-(1-(2-(4-(4-nitrophenyl)-1,3-thiazol-2-yl)hydrazinylidene)ethyl)phenyl)-1,3,5-triazine-2,4,6-triamine] |
| 3.23 ± 0.401 µg/mL | C/C(=N\Nc1nc(-c2ccc(Cl)cc2)cs1)c1ccc(Nc2nc(N)nc(N)n2)cc1 [Compound 4b, (E)-N^2-(4-(1-(2-(4-(4-chlorophenyl)-1,3-thiazol-2-yl)hydrazinylidene)ethyl)phenyl)-1,3,5-triazine-2,4,6-triamine] |
| 3.18 ± 0.192 µg/mL | C/C(=N\Nc1nc(-c2ccc(Br)cc2)cs1)c1ccc(Nc2nc(N)nc(N)n2)cc1 [Compound 4d, (E)-N^2-(4-(1-(2-(4-(4-bromophenyl)-1,3-thiazol-2-yl)hydrazinylidene)ethyl)phenyl)-1,3,5-triazine-2,4,6-triamine] |
| 5.73 ± 2.05 µg/mL | C/C(=N\Nc1nc(-c2ccccc2)cs1)c1ccc(Nc2nc(N)nc(N)n2)cc1 [Compound 4k, (E)-N^2-(4-(1-(2-(4-phenyl-1,3-thiazol-2-yl)hydrazinylidene)ethyl)phenyl)-1,3,5-triazine-2,4,6-triamine] |
| 8.41 ± 0.373 µg/mL | C/C(=N\Nc1nc(-c2ccc(I)cc2)cs1)c1ccc(Nc2nc(N)nc(N)n2)cc1 [Compound 4e, (E)-N^2-(4-(1-(2-(4-(4-iodophenyl)-1,3-thiazol-2-yl)hydrazinylidene)ethyl)phenyl)-1,3,5-triazine-2,4,6-triamine] |

The remaining lines, values behind:

| Structure (SMILES) | IC50 |
| --- | --- |
| C/C(=N\Nc1nc(-c2ccc(Cl)c(Cl)c2)cs1)c1ccc(Nc2nc(N)nc(N)n2)cc1 [Compound 4i, (E)-N^2-(4-(1-(2-(4-(3,4-dichlorophenyl)-1,3-thiazol-2-yl)hydrazinylidene)ethyl)phenyl)-1,3,5-triazine-2,4,6-triamine] | 3.69 ± 1.64 µg/mL |
| C/C(=N\Nc1nc(-c2ccc(F)cc2)cs1)c1ccc(Nc2nc(N)nc(N)n2)cc1 [Compound 4a, (E)-N^2-(4-(1-(2-(4-(4-fluorophenyl)-1,3-thiazol-2-yl)hydrazinylidene)ethyl)phenyl)-1,3,5-triazine-2,4,6-triamine] | 4.28 ± 0.984 µg/mL |
| C/C(=N\Nc1nc(-c2ccc(C)cc2)cs1)c1ccc(Nc2nc(N)nc(N)n2)cc1 [Compound 4c, (E)-N^2-(4-(1-(2-(4-(4-tolyl)-1,3-thiazol-2-yl)hydrazinylidene)ethyl)phenyl)-1,3,5-triazine-2,4,6-triamine] | 8.33 ± 2.83 µg/mL |
